Consider 27 compounds from ChEMBL document CHEMBL5715943, “Design and synthesis of potent and selective azaindole-based Rho kinase (ROCK) inhibitors” (ChemMedChem, 2008).

Series [1] has as its target Rho-associated protein kinase 2 (Homo sapiens, UniProt O75116). Kind of series: Inhibition of His-tagged human ROCK2 expressed in Sf9 cells pre-incubated for 10 mins before S6 peptide substrate addition in presence of [33P]ATP and measured after 20 mins by scintillation counting.
For another series, the system named is Saphenous artery. Kind of series: Vasorelaxant activity in isolated Chinchilla rabbit saphenous artery vessels assessed as inhibition of phenylephrine-mediated contraction. Type of series: functional, tissue-based. The conditions noted are these: Oryctolagus cuniculus.
Series [2] is described as follows: in vivo. Particulars: Wistar, rat, iv, 0.5 mg/kg; call rule not given here.
Series [3] in a line: in vivo. Particulars: Wistar, rat, iv, 0.5 mg/kg. The source holds these as a separate data set.
The conditions of series [4]: buffer.
The subject of series [5] is Rattus norvegicus. Kind of series: Anti-hypertensive effect in anaesthetized Wistar rat assessed as blood-pressure-lowering effect at 3 mg/kg, iv relative to control. In kind it is functional.
The nature of series [6]: in vivo. The conditions noted are these: Wistar, rat, po, 1 mg/kg.
The target of series [7] is T1, Tyrosine-protein kinase receptor UFO (Homo sapiens, UniProt P30530).
T1 sequence (P30530 whole entry): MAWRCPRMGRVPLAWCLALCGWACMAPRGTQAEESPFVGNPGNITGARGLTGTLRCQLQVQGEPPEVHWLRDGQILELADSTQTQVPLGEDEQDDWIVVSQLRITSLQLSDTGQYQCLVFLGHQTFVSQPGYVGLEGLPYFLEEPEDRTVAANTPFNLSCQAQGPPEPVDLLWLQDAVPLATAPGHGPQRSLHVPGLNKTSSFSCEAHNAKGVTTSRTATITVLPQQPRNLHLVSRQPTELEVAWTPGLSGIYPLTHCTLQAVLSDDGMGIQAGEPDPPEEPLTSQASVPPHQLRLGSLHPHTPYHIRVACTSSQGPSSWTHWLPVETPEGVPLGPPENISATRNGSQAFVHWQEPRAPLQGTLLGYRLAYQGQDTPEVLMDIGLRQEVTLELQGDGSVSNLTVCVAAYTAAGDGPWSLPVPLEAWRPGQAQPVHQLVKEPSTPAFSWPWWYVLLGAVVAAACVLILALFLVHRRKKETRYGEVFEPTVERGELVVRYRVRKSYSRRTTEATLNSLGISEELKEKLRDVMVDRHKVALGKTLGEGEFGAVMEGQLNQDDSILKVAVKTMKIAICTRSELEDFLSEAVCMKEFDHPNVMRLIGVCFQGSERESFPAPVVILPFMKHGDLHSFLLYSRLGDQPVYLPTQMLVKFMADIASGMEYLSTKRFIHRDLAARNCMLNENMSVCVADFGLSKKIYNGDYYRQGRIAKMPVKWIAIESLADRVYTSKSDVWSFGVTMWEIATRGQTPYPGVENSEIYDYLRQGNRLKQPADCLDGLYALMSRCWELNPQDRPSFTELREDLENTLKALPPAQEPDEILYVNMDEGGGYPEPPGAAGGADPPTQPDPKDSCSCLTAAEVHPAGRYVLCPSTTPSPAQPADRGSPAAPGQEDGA
Kind of series: Inhibition of human AXL.

Series [8] deals with RAF proto-oncogene serine/threonine-protein kinase (Homo sapiens, UniProt P04049). Kind of series: Inhibition of human c-RAF.
Chain of RAF proto-oncogene serine/threonine-protein kinase (P04049 whole entry): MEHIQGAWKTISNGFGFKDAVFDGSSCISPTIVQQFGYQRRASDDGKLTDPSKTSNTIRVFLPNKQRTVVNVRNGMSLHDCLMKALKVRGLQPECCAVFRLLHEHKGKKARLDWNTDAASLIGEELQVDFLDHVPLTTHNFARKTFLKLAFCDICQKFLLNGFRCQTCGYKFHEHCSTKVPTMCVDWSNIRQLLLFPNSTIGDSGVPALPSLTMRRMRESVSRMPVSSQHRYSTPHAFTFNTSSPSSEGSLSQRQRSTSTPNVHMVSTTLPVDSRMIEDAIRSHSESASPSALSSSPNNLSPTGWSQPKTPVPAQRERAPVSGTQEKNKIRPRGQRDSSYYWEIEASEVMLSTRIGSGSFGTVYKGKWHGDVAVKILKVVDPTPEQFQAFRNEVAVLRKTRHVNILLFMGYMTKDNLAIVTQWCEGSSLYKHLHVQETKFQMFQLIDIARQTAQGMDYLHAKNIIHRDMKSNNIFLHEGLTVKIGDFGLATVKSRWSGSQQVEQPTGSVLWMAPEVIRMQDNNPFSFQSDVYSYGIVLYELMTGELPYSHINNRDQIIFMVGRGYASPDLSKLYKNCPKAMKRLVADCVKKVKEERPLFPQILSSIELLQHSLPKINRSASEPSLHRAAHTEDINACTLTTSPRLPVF
Series [9] concerns Rattus norvegicus. Kind of series: Anti-hypertensive effect in anaesthetized Wistar rat assessed as blood-pressure-lowering effect at 0.3 mg/kg, iv relative to control. Type of series: functional.
Series [10] addresses Myosin light chain kinase, smooth muscle (Homo sapiens, UniProt Q15746). Kind of series: Inhibition of MYLK (unknown origin).
Series [11] is described as follows: Inhibition of sodium channel (unknown origin). Set-up: species or system Homo sapiens.
The target of series [12] is Voltage-gated inwardly rectifying potassium channel KCNH2 (Homo sapiens, UniProt Q12809). Kind of series: Inhibition of human ERG channel assessed as reduction in K+ current by whole-cell voltage-clamp assay. In kind it is toxicity.
Chain of Voltage-gated inwardly rectifying potassium channel KCNH2 (Q12809 whole entry): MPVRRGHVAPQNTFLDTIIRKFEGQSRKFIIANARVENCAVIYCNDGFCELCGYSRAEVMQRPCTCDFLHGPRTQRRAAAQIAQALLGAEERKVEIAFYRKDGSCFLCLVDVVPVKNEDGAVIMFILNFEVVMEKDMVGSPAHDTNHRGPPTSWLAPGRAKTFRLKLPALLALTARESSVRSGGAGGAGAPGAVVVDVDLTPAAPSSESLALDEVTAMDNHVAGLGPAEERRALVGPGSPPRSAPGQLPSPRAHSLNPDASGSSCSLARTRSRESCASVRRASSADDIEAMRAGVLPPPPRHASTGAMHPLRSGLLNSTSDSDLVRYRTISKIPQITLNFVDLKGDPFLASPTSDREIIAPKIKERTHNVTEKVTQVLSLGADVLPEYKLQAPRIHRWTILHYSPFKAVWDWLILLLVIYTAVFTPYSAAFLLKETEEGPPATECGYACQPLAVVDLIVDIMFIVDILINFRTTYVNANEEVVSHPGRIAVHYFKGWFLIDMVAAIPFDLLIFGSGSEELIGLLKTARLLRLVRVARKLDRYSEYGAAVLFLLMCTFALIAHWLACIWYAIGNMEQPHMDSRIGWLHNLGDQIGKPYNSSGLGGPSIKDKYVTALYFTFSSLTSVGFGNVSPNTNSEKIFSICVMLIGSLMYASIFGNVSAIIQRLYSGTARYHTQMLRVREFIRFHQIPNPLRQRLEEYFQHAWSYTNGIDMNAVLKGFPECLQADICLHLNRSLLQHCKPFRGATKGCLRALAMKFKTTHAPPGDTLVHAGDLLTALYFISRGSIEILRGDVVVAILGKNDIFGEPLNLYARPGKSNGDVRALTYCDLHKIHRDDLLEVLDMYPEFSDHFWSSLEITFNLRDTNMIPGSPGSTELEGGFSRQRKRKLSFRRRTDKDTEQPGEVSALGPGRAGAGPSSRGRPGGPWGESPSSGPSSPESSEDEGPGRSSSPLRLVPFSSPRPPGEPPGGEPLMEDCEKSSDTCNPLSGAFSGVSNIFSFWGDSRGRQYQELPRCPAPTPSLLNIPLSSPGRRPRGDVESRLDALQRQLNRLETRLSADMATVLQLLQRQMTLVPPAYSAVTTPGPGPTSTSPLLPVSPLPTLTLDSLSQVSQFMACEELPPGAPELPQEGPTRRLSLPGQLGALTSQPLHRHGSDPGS
Series [13] concerns the target Voltage-gated L-type calcium channel (Homo sapiens, UniProt Q13936+Q13698+Q01668+O60840). Kind of series: Inhibition of L-type calcium channel (unknown origin). In kind it is protein assay.

Each structure is given as a SMILES string.

Chain of Rho-associated protein kinase 2 (O75116 whole entry): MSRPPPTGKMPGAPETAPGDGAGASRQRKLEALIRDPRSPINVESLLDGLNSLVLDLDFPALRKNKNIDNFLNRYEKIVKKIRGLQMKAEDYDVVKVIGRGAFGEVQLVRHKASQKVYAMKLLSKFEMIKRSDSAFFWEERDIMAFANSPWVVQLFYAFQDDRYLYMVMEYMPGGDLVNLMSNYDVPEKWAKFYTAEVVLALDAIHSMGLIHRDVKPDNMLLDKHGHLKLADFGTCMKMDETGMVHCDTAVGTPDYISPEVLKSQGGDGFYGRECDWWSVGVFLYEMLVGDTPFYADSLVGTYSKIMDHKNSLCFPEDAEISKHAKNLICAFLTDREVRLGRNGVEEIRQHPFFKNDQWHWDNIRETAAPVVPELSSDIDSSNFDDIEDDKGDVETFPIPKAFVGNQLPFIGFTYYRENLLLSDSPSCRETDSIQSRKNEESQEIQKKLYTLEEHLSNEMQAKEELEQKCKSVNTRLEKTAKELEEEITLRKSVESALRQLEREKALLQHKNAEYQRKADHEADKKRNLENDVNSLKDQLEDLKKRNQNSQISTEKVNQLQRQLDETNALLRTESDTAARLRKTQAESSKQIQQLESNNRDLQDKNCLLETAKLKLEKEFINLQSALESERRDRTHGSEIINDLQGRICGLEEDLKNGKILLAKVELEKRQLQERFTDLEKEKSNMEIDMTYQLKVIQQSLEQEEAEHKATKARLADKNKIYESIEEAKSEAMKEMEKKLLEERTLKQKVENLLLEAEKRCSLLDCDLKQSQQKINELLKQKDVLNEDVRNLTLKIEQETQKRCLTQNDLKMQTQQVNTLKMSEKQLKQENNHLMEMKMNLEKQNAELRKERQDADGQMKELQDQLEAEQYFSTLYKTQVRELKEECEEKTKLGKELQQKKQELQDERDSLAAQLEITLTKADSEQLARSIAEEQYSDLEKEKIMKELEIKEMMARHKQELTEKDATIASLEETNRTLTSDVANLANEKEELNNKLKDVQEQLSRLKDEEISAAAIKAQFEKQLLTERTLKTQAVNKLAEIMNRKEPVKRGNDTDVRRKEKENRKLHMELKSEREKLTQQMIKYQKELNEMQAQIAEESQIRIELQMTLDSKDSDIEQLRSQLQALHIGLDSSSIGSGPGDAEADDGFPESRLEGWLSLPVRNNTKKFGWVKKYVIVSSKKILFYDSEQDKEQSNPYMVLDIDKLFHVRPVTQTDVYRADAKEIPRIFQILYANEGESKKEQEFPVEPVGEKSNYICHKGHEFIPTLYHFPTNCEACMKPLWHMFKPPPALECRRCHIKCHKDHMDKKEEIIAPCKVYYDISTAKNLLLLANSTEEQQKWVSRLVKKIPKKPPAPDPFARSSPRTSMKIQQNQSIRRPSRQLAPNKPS
Chain of Myosin light chain kinase, smooth muscle (Q15746 whole entry): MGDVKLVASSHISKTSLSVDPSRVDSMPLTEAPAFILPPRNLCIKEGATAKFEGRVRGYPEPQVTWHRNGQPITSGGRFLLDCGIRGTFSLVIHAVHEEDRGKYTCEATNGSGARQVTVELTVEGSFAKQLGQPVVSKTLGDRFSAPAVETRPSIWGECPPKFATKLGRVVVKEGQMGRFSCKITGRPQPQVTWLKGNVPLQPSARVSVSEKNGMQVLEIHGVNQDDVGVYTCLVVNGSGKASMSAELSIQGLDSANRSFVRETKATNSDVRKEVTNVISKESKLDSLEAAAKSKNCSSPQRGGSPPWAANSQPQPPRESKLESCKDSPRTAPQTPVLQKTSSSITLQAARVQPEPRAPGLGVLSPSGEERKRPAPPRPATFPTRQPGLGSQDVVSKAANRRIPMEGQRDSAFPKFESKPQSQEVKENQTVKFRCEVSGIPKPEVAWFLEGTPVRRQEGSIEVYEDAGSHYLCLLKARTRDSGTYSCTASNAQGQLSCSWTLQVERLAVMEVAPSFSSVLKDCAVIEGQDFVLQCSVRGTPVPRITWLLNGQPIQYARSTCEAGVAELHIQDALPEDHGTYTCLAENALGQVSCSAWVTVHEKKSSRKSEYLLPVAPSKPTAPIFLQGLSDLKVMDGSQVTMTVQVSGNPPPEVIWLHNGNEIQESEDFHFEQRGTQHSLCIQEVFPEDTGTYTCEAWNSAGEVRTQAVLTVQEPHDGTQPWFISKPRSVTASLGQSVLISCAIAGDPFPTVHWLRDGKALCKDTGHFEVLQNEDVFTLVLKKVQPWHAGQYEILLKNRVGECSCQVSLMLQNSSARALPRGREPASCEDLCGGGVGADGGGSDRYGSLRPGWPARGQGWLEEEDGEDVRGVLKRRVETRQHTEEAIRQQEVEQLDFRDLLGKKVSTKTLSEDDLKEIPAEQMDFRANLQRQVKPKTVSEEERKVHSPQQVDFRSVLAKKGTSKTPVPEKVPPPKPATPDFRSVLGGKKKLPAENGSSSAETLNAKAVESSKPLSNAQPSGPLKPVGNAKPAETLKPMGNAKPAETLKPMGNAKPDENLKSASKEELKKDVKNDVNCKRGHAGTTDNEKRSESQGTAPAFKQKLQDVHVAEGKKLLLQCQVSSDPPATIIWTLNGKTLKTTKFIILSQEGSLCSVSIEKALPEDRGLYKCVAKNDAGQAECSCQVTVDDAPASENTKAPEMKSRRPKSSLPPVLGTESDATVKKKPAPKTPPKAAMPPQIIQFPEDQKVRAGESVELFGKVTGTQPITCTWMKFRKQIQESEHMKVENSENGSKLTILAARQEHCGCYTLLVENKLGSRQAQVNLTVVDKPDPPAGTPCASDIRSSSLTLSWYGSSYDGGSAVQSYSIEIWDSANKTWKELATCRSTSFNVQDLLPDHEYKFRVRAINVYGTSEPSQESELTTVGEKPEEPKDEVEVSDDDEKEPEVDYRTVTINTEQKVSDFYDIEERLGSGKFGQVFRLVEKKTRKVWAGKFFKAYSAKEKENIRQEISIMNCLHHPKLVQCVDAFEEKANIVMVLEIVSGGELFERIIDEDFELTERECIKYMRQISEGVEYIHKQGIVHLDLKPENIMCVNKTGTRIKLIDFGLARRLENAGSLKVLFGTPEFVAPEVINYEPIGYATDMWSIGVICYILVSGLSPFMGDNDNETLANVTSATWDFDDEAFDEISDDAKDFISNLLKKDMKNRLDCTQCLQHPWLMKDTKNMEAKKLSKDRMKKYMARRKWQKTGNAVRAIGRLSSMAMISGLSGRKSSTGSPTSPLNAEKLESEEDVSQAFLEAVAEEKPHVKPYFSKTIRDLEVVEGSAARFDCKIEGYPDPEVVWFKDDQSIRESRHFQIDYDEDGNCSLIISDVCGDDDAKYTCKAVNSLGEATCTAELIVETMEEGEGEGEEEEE

For `Cc1cc(Nc2ccc(Sc3ccncc3)c(F)c2)nc(N)n1`, the IC50 (in general, the concentration that gives 50% inhibition) in series [1] worked out at 90 nM.

In the case of `Nc1nc(Nc2ccc(Oc3ccnc4[nH]ccc34)c(F)c2)cc(-c2cccnc2)n1`, the IC50 came to 370 nM with Saphenous artery and 10 nM in [1].

Turning to `Cc1c[nH]c2nccc(Oc3ccc(Nc4ccnc(N)n4)cc3F)c12`, the IC50 with Saphenous artery was 84 nM; in series [1], 4 nM. Besides, the half-life – broadly, how long it takes for the measured level to halve – in the series “in vivo [2]” is 30 min. Further, the clearance (usually the volume of plasma or blood freed of the substance per unit of time) in “in vivo [3]” is 35 mL/min/kg.

For `N#Cc1c[nH]c2nccc(Oc3c(F)cc(Nc4ccnc(N)n4)cc3F)c12`, the values for the IC50 (with Saphenous artery; in series [1]) were 20 nM and 0.9 nM, respectively. For the same compound, the solubility result in series [4] is on record as “Insoluble”.

Regarding `Nc1nc(Nc2ccc(Oc3ccnc4[nH]ccc34)c(F)c2)cc(C2CCNCC2)n1`, the values for the 50% inhibitory concentration (IC50) (in the series on Saphenous artery; in series [1]) were 570 nM and 2 nM, respectively.

For `Nc1nccc(Nc2ccc(Oc3ccnc4[nH]ccc34)c(F)c2)n1`, the IC50 came to 1500 nM in the series on Saphenous artery and 17 nM in series [1].

Turning to `Nc1nc(Nc2ccc(Oc3ccnc4[nH]ccc34)c(F)c2)cc(N2CCNCC2)n1`, the 50% inhibitory concentration (IC50) amounted to 410 nM with Saphenous artery and 6 nM in series [1].

Turning to `Cc1c[nH]c2nccc(Oc3ccc(Nc4cc(-c5ccncc5)nc(N)n4)cc3F)c12`, the IC50 worked out at 89 nM with Saphenous artery and 3 nM in series [1]. In the series on Rattus norvegicus [5], the Activity is given as 70 mmHg.

In the case of `Nc1nc(Nc2ccc(Oc3ccnc4[nH]ccc34)c(F)c2)cc(-c2ccccn2)n1`, the half-maximal inhibitory concentration (IC50) with Saphenous artery came to 460 nM; in [1], 7 nM.

In the case of `Nc1nc(Cl)cc(Nc2ccc(Oc3ccnc4[nH]ccc34)c(F)c2)n1`, the figures for the IC50 (in the series on Saphenous artery; in [1]) were 1100 nM and 9 nM, respectively.

With `Nc1nc(Nc2ccc(Oc3ccnc4[nH]ccc34)c(F)c2)cc(N2CCCC2)n1`, the half-inhibitory concentration (IC50) in the series with Saphenous artery was 940 nM; in series [1], 16 nM.

On to `Nc1nc(Nc2ccc(Sc3ccncc3)c(F)c2)cc(-c2ccncc2)n1`, for which the IC50 with Saphenous artery came out at 500 nM; in series [1], 11 nM.

In the case of `Nc1nc(Nc2ccc(Oc3cccc4cnccc34)c(F)c2)cc(-c2ccncc2)n1`, in [1], the IC50 stood at 200 nM.

For `Nc1nc(Nc2ccc(Oc3ccnc4[nH]ccc34)c(F)c2)cc(-c2ccncc2)n1`, the IC50 in the series with Saphenous artery amounted to 270 nM. In addition, the bioavailability (as a rule, dose-corrected exposure relative to a reference, in per cent) in “in vivo [6]” came out at 18%. Also, in the series with Rattus norvegicus [5], the Activity stood at 65 mmHg. The compound further showed a half-life in the series “in vivo [2]” of 18 min. The same compound had a clearance in the series “in vivo [3]” of 88.3 mL/min/kg.

With `Cc1n[nH]c2cccc(Oc3ccc(Nc4cc(-c5ccncc5)nc(N)n4)cc3F)c12`, in the series with Saphenous artery, the half-inhibitory concentration (IC50) is 6800 nM.

With `Nc1nc(Nc2ccc(Oc3ccnc4[nH]ccc34)c(F)c2)cc(C(F)(F)F)n1`, the half-inhibitory concentration (IC50) turned out to be 710 nM with Saphenous artery and 7 nM in [1].

Consider `Nc1nc(Nc2cc(F)c(Oc3ccnc4[nH]cc(Cl)c34)c(F)c2)cc(C(F)(F)F)n1`, for which the figures for the IC50 (with Saphenous artery; in [1]) were 82 nM and 2 nM, respectively. The solubility entry in [4] is given as “Insoluble”.

Consider `Cc1c[nH]c2nccc(Oc3c(F)cc(Nc4cc(Cl)nc(N)n4)cc3F)c12` [BAY-549], for which the IC50 is 65 nM in the series with Saphenous artery; 1000 nM in series [7]; 1000 nM in series [8]; 7400 nM in series [10]; 6800 nM in series [11]; 6700 nM in series [13]. In the series with Rattus norvegicus [9], the Activity amounted to 35 mmHg. Also, the bioavailability in “in vivo [6]” amounted to 48%. For the same compound, the “inhibition (INH)” value in series [12] is recorded as “Not Active”. The half-life in the series “in vivo [2]” is 72 min. The compound also showed a clearance in “in vivo [3]” of 28.3 mL/min/kg.

In the case of `Nc1nc(Nc2ccc(Oc3cccc4[nH]ncc34)c(F)c2)cc(-c2ccncc2)n1`, the IC50 in [1] amounted to 380 nM.

As to `Cc1c[nH]c2nccc(Oc3ccc(Nc4cc(Cl)nc(N)n4)cc3F)c12`, the IC50 in the series with Saphenous artery is 100 nM.

For the compound `Nc1nc(Nc2ccc(Oc3cccc4[nH]ccc34)c(F)c2)cc(-c2ccncc2)n1`, the half-inhibitory concentration (IC50) in series [1] is > 3000 nM.

Consider `Nc1nc(Nc2ccc(Oc3ccnc4[nH]ccc34)c(F)c2)cc(C2CCCNC2)n1` (centres undefined), for which, in the series on Saphenous artery, the IC50 stood at 230 nM.

For the compound `CCc1c[nH]c2nccc(Oc3ccc(Nc4cc(-c5ccncc5)nc(N)n4)cc3F)c12`, the results for the IC50 (in the series on Saphenous artery; in series [1]) were 1200 nM and 8 nM, respectively.

As for `Cc1c[nH]c2nccc(Oc3c(F)cc(Nc4ccnc(N)n4)cc3F)c12`, the results for the half-inhibitory concentration (IC50) (in the series on Saphenous artery; in series [1]) were 56 nM and 2 nM, respectively. For the same compound, the half-life in the series “in vivo [2]” was 54 min. The same compound gave a clearance in the series “in vivo [3]” of 26.7 mL/min/kg.

In the case of `Nc1nc(Nc2ccc(Oc3ccnc4[nH]ncc34)c(F)c2)cc(-c2ccncc2)n1`, the half-maximal inhibitory concentration (IC50) in series [1] was > 3000 nM.

With `Cc1cc(Nc2ccc(Sc3ccncc3)cc2)nc(N)n1`, in series [1], the IC50 came out at 800 nM.

With `Cc1cc(Nc2ccc(Oc3ccnc4[nH]ccc34)c(F)c2)nc(N)n1`, the 50% inhibitory concentration (IC50) in the series with Saphenous artery is 1700 nM; in series [1] it was 11 nM.
